Values quoted from earlier work, collected in patent publication US20090239757A1, “Control Sequences Responding to AMP and Uses Thereof” (priority 2004, published 2009).
Residues, ends and D or L forms follow the SMILES beside them.

Test system: Gram-positive and Gram-negative bacteria
Settings: U.S. Pat. No. 6,492,328; cited from earlier work

SMILES: CC[C@H](C)[C@H](NC(=O)CNC(=O)[C@H](CCCCN)NC(=O)[C@H](CCCNC(=N)N)NC(=O)[C@@H](NC(=O)[C@@H](NC(=O)[C@H](CCCNC(=N)N)NC(=O)[C@H](CCCNC(=N)N)NC(=O)[C@H](CC(C)C)NC(=O)[C@H](CC(N)=O)NC(=O)[C@@H](N)CCCCN)[C@@H](C)CC)[C@@H](C)CC)C(=O)N[C@@H](Cc1c[nH]cn1)C(=O)N[C@H](C(=O)N[C@H](C(=O)N[C@@H](CCCCN)C(=O)N[C@@H](CCCCN)C(=O)N[C@@H](Cc1ccc(O)cc1)C(=O)NCC(=O)O)[C@@H](C)CC)[C@@H](C)CC [Novispirin G10] (H-KNLRRIIRKGIHIIKKYG-OH; N-terminus assumed)
- antimicrobial activity: activity against both Gram-positive and Gram-negative bacteria
